Like-named read-outs stand apart in the source and are kept apart here.
What was measured:
hGluN1a + hGluN2Bwt [1] = molecular target: T1, hGluN1a + hGluN2Bwt (Homo sapiens, UniProt Q05586+Q13224); conditions: read-out: Glycine EC50; 5 mM glutamate
Protocol: Two electrode voltage clamp (TEVC) recordings were carried-out 24–72 hr following mRNA injections, as previously described ([Berlin et al., 2011]). Recordings were performed using commercial amplifier (Warner Instruments, USA) and Digitizer (Digidata-1550B; Molecular Devices, USA), controlled by pClamp10 software (Molecular Devices, USA). Electrodes consisted of pulled glass capillaries (by puller- Narishige, Japan) with chlorinated silver wire, filled with 3M KCl. Oocytes were clamped to −60 mV and perfused with nominally Mg^+2-free barth solution (in mM): 100 NaCl, 0.3 BaCl2, 5 HEPES, pH 7.3 (adjusted with NaOH).
Data were analyzed by Clampfit software (Molecular Devices, USA) and were fitted using Sygmaplot 11 (Systat software, inc) to Hill’s equation (Equation 1) from which we extracted EC50 values. […] IC50 values for Mg^+2 and proton inhibition were extrapolated by fitting the results to Hill’s equation (Equation 4). τoff values for apparent open probability were extrapolated by fitting the result to a mono-exponential function (Equation 5). t10-90% results were obtained by placing cursors at beginning and end of responses, then automatically assessed by the Clampfit software (under statistics, positive going). mEPSCs were detected off-line using pCLAMP 10’s template search. Briefly, 5–10 ‘minis’ were identified and selected by user, followed by an automated search. […]

GluN1 = tested on: GluN1; set-up: method as in Traynelis et al., 2010; conditions: ref Traynelis et al., 2010; cited from earlier work
hGluN1a + hGluN2Bwt [2] = molecular target: T1, hGluN1a + hGluN2Bwt; assay: Assessing potentiation by D-serine, TEVC in oocytes; conditions: 100 μM D-serine, 5 mM glutamate, 1 μM glycine
hGluN1a + hGluN2Bwt [3] = molecular target: T1, hGluN1a + hGluN2Bwt; assay: Glutamate dose-response, TEVC in Xenopus oocytes; type: cell-based; set-up: expressed in transfected cells; host or cells: Xenopus laevis oocytes injected with in vitro transcribed mRNA (pCI-Neo plasmids produced by the Traynelis lab)
From the text: All Experiments were approved by the Technion Institutional Animal Care and Use Committee (permit SB, no. IL-129-09-17). Xenopus laevis oocytes were harvested, prepared, and injected with mRNA as previously described ([Berlin et al., 2020]). Briefly, oocytes were obtained from anesthetized (by 0.4% tricaine solution) female frogs. Oocytes were extracted from ovaries, defolliculated by collagenase treatment in ND96 Ca^+2-free solution (in mM: 96 NaCl, 2 KCL, 1 MgCl2, 5 HEPES, pH 7.4) for about 45 min at RT. Cells were washed with ND96 Ca^+2 -free and transferred to enriched ND96 (NDE) consisting of ND96 supplemented with 1.8 mM CaCl2, 2.5 mM sodium pyruvate, 100 μg/ml streptomycin and 62.75 μg/ml penicillin. Stage V oocytes were manually isolated, incubated overnight at 18°C and injected with mRNA the next day.
For mRNA preparation, DNA plasmids were linearized by restriction enzymes (NotI), followed by in vitro mRNA transcription using mMessage-mMachine T7 kit (Thermo Scientific, Cat.#AM1344), as previously described ([Berlin et al., 2010]). mRNA concentrations were determined using a spectrophotometer. […]
Data were analyzed by Clampfit software (Molecular Devices, USA) and were fitted using Sygmaplot 11 (Systat software, inc) to Hill’s equation (Equation 1) from which we extracted EC50 values.

GluN2B-E413G = tested on: GluN2B-E413G; set-up: method as in Swanger et al., 2016; conditions: read-out: glutamate potency EC50; ref Swanger et al., 2016; cited from earlier work
GRIN2A mutation D731N = tested on: GRIN2A mutation D731N; set-up: method as in Swanger et al., 2016; conditions: ref Swanger et al., 2016; cited from earlier work
GluN2B-mutant = tested on: GluN2B-mutant; set-up: method as in Soto et al., 2019; conditions: ref Soto et al., 2019; cited from earlier work
hGluN1a + hGluN2Bwt [4] = molecular target: T1, hGluN1a + hGluN2Bwt; assay: Mg2+ dose-response (block), TEVC in Xenopus oocytes; type: cell-based; set-up: expressed in transfected cells; host or cells: Xenopus laevis oocytes injected with in vitro transcribed mRNA (pCI-Neo plasmids produced by the Traynelis lab); conditions: 5 mM glutamate, 100 μM glycine, −60 mV; read-out: Mg^+2 IC50 (−60 mV)
hGluN1a + hGluN2Bwt [5] = molecular target: T1, hGluN1a + hGluN2Bwt; assay: Apparent open probability: MK-801 block kinetics, TEVC in oocytes; type: cell-based; set-up: expressed in transfected cells; host or cells: Xenopus laevis oocytes injected with in vitro transcribed mRNA (pCI-Neo plasmids produced by the Traynelis lab); conditions: 1 μM MK-801 after 3 mM glutamate, 100 μM glycine
Protocol: MK-801 (activity-dependent pore blocker of GluNRs) was purchased from Alomone labs (cat.# M-230). One mM stock solutions were made by diluting lyophilized MK-801 in barth solution. […] Deactivation kinetics were fitted from which we extracted t10-90% or deactivation constant, τoff.
Data were analyzed by Clampfit software (Molecular Devices, USA) and were fitted using Sygmaplot 11 (Systat software, inc) to Hill’s equation (Equation 1) from which we extracted EC50 values. […] IC50 values for Mg^+2 and proton inhibition were extrapolated by fitting the results to Hill’s equation (Equation 4). τoff values for apparent open probability were extrapolated by fitting the result to a mono-exponential function (Equation 5). t10-90% results were obtained by placing cursors at beginning and end of responses, then automatically assessed by the Clampfit software (under statistics, positive going). mEPSCs were detected off-line using pCLAMP 10’s template search. Briefly, 5–10 ‘minis’ were identified and selected by user, followed by an automated search. All automatically identified minis were validated by user.

hGluN1a + hGluN2Bwt [6] = molecular target: T1, hGluN1a + hGluN2Bwt
Protocol: With the intent to rescue (i.e. increase) current amplitudes, we turned our attention toward spermine— a naturally-occurring and highly specific GluN2B-subunit potentiator ([Mony et al., 2009]; [Mony et al., 2011]). […] To further address this issue we employed arcaine-sulfate (a competitive antagonist of the polyamine site [[Gomes et al., 2014]; [Araneda et al., 1999]; [Reynolds, 1990]]).
Spermine was purchased from Sigma-Aldrich (Cat. #S3256). A total of 200 mM stock solutions were made by diluting powdered spermine in barth solution at different pHs (6.3 and 7.3). […] Arcaine sulfate was purchased from Alomone labs (Cat. # 14923-17-2). Ten mM solutions were made by diluting lyophilized Arcaine sulfate in barth solution at pH = 6.5.

GluN2B-subunit = conditions: read-out: spermine reported EC50; ref Mony et al., 2011; cited from earlier work

T1 sequence (Q13224 27-1484, other chains not shown): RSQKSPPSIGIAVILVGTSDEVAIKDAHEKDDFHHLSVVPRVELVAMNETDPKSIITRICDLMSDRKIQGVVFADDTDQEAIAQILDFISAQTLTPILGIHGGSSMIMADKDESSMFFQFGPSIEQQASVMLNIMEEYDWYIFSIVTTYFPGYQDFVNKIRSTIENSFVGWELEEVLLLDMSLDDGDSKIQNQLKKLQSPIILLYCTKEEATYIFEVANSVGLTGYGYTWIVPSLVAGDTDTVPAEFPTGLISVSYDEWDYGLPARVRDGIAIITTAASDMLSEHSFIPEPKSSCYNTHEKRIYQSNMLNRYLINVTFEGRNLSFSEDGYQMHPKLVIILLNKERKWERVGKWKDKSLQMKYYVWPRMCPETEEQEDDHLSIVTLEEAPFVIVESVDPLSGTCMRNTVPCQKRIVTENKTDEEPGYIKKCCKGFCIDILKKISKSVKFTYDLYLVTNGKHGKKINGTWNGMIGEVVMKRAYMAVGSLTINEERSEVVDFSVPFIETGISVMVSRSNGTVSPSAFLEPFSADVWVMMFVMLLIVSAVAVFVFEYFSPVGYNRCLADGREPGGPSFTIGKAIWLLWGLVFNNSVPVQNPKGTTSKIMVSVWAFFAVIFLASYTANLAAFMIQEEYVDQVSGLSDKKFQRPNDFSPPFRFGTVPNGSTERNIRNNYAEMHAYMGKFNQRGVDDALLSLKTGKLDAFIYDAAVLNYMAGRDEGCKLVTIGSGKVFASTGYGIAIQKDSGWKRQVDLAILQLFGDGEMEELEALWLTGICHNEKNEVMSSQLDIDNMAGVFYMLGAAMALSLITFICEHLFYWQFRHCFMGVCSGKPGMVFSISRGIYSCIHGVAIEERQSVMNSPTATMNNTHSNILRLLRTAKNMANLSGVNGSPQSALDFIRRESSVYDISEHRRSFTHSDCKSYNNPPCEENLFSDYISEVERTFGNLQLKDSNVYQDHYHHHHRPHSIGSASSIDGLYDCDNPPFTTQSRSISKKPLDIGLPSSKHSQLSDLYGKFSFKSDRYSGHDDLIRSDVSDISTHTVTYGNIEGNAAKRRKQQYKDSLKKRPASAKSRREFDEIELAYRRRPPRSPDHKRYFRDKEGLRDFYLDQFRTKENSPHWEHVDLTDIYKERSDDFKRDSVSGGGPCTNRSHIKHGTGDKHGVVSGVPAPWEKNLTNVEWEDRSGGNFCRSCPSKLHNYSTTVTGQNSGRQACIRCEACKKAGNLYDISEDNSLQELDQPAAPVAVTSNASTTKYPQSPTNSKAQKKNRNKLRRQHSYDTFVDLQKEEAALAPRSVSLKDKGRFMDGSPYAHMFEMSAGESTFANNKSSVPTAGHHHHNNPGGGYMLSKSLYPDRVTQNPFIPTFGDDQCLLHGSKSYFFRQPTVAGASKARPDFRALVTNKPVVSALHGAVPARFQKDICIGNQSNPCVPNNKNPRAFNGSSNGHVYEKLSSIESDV

NCC(=O)O [Glycine, glycine]
EC50 (hGluN1a + hGluN2Bwt [1]): 0.23 ± 0.03 µM

N[C@H](CO)C(=O)O [D-serine]
EC50 (GluN1): ~0.7 µM
increase of the maximal current by D-serine (hGluN1a + hGluN2Bwt [2]): ~ 35%

N[C@@H](CCC(=O)O)C(=O)O [Glutamate, glutamate]
Imax Norm. to wt (hGluN1a + hGluN2Bwt [3]; normalized maximal glutamate current, oocytes): 1 ± 0.08; (22)
contribution to the total current by excess glutamate >100 μM (hGluN1a + hGluN2Bwt [3]; receptors saturated at 100 μM glutamate): < 15%
EC50 (GluN2B-E413G): 79 ± 5.3 µM
reduction in glutamate potency (GRIN2A mutation D731N): ~ 6000 fold
reduction in EC50 (GluN2B-mutant): ~ 7 fold

[Mg+2] [Mg^+2]
IC50 (hGluN1a + hGluN2Bwt [4]): 31 ± 3.7 µM

C[C@]12N[C@H](Cc3ccccc31)c1ccccc12 [MK-801]
10–90% inhibition rate (hGluN1a + hGluN2Bwt [5]): 8554 ± 827 ms; (24)
τoff (hGluN1a + hGluN2Bwt [5]; mono-exponential fit): 4590 ± 603 ms; (24)

NCCCNCCCCNCCCN [spermine]
potentiation by spermine (hGluN1a + hGluN2Bwt [6]; 200 μM spermine, pH 6.3): ~ 25 fold
potentiation by spermine (hGluN1a + hGluN2Bwt [6]; 200 μM spermine, pH 7.3): ~ 70%
current with spermine relative to basal glutamate current (hGluN1a + hGluN2Bwt [6]; 200 μM spermine, pH 7.3, 5 mM glutamate, 100 μM glycine): 172%
inhibition by higher spermine concentrations (hGluN1a + hGluN2Bwt [6]; pH 7.3): not observed
EC50 (GluN2B-subunit): 200 µM

Reference: article PMC8260228, “Two de novo GluN2B mutations affect multiple NMDAR-functions and instigate severe pediatric encephalopathy” (eLife, 2021)
